Reference: publication PMC8879095, “UHPLC-MS/MS Analysis of Antibiotics Transfer and Concentrations in Porcine Oral Fluid after Intramuscular Application” (Pharmaceuticals, 2022)
Read-outs that look alike come from different tables or passages of the source.

Assays:
[1] = Antibiotic concentrations in porcine oral fluid after intramuscular application (UHPLC-MS/MS); assay type: in vivo; conditions: pigs, i.m.; for concentration at 1 d / concentration at 2 d / concentration at 3 d / concentration at 4 d / concentration at 5 d / concentration at 6 d / concentration at 7 d / concentration at 8 d / concentration at 9 d / concentration at 10 d / concentration at 11 d / concentration at 12 d / concentration at 13 d / concentration at 14 d / concentration at 15 d / concentration at 16 d / concentration at 17 d / concentration at 18 d / concentration at 19 d / concentration at 20 d / concentration at 21 d / concentration at 22 d / concentration at 23 d / concentration at 24 d / concentration at 25 d / concentration at 26 d / concentration at 27 d / concentration at 28 d / concentration at 29 d / concentration at 30 d: male, (Landrace × Yorkshire) × Duroc crossbred (DanBred sows), pig, intramuscular; for concentration at 1 d / concentration at 2 d / concentration at 3 d / concentration at 4 d / concentration at 5 d / concentration at 6 d / concentration at 7 d / concentration at 8 d / concentration at 9 d / concentration at 10 d / concentration at 11 d / concentration at 12 d / concentration at 13 d / concentration at 14 d / concentration at 15 d / concentration at 16 d / concentration at 17 d / concentration at 18 d / concentration at 19 d / concentration at 20 d / concentration at 21 d / concentration at 22 d / concentration at 23 d / concentration at 24 d / concentration at 25 d / concentration at 26 d / concentration at 27 d / concentration at 28 d / concentration at 29 d / concentration at 30 d / concentration in oral fluid at withdrawal period / Avarage Concentrations in oral fluid: oral fluid; for concentration in oral fluid at withdrawal period: at the end of the withdrawal period for tissues of each drug (Table 3); for distribution to oral fluid: conclusion in words
Procedure: All animals were born in the sow farm (8000 DanBred sows) located in Northern Poland, after crossing ♀(♂Landrace × ♀Yorskshire) × ♂Duroc. Piglets were weaned after 4 weeks of lactation with an average weight of 6 kg and then moved to the weaner stable (23,000 weaners). After the next 7 weeks, animals were transported to the 9000-places fattening farm with an average body weight of 28 kg, where the trial was performed. All farms in the aforementioned three-phase model used weekly batches and an all-in all-out system. Specialist veterinary and production management care were provided in each location.
For the purpose of the study, 240 immunologically castrated boars were divided into 8 groups, 30 animals in each pen. For the control group, 30 pigs were used in separate pens. Their initial body weight was between 40 and 60 kg. Pigs were housed at 20–25 °C. Fatteners were fed ad libitum with antimicrobial-free water and feed provided by feeders throughout the study. Before the experiment, water and feed were checked for antimicrobials, and no antimicrobial treatments were administered to these pigs before. All animals in one pen were treated due to the same health issue using disposable needles and the same drug and dosage. Pens were separated from each other with concrete walls. The drugs and dosage administered to each experimental group with an indication of withdrawal period for tissues are listed in Table 3. The oral fluid samples were collected using three cotton ropes (70 cm length with 1 cm diameter) in each pen suspended separately for 25 min on the front wall of the pen with bottoms at the pigs’ shoulder height, away from water and feed.
The research material was one pooled sample of oral fluid from 10 pigs, in triplicate, per pen. Ropes were removed immediately after collection. The first oral fluid sample was collected 24 h after the first injection. The collection of each subsequent sample took place at the same time (11:30 A.M.) for 35 consecutive days. Additionally, oral fluid samples were collected from pigs not treated with any antibiotics. Oral fluid from each pen was pooled into one 50-mL Falcon plastic tube and centrifuged at 9447× rcf for 15 min. Centrifuged material was transferred to a 15 mL plastic tube and frozen at −20 °C until analysis.
Before the analysis, the oral fluid samples were centrifuged at 9447× rcf. Next, an aliquot (1 mL) of oral fluid was placed into a 2 mL polypropylene centrifuge tube, and the 30 µL of the internal standard at the concentration of 2 µg/mL was added. For the extraction of analysed antibiotics, 600 µL of 0.5% formic acid was added, vortexed for 30 s and centrifuged for 10 min at 9447× rcf. Then, the supernatant was filtered through a […] PVDF filter into an amber glass vial before chromatographic analysis.
The mass spectrometry detection was operated in the positive ESI mode with multiple reaction monitoring (MRM).

[2] = cited from earlier work
[3] = first day of medication (abstract), read-out: concentration in oral fluid on the first day of medication
[4] = time 1 d (24 h after first injection), treatment period, read-out: Avarage Concentrations in oral fluid
[5] = treatment period, read-out: Avarage Concentrations in oral fluid
[6] = time 4 d, posttreatment, read-out: Avarage Concentrations in oral fluid
[7] = posttreatment, read-out: Avarage Concentrations in oral fluid
[8] = time 30 d, posttreatment, read-out: Avarage Concentrations in oral fluid
[9] = time 1 d (24 h after first injection), treatment period

Row | concentration at 1 d [1, 3] [ng/g] | concentration at 1 d [1, 4] [ng/mL] | concentration at 2 d [1, 5] [ng/mL] | concentration at 3 d [1, 5] [ng/mL] | concentration at 4 d [1, 6] [ng/mL] | concentration at 5 d [1, 7] [ng/mL] | concentration at 6 d [1, 7] [ng/mL] | concentration at 7 d [1, 7] [ng/mL] | concentration at 8 d [1, 7] [ng/mL] | concentration at 9 d [1, 7] [ng/mL] | concentration at 10 d [1, 7] [ng/mL] | concentration at 11 d [1, 7] [ng/mL] | concentration at 12 d [1, 7] [ng/mL] | concentration at 13 d [1, 7] [ng/mL] | concentration at 14 d [1, 7] [ng/mL] | concentration at 15 d [1, 7] [ng/mL] | concentration at 16 d [1, 7] [ng/mL] | concentration at 17 d [1, 7] [ng/mL] | concentration at 18 d [1, 7] [ng/mL] | concentration at 19 d [1, 7] [ng/mL] | SMILES | also measured
1 | 22300 | 22300 | 5860 ± 1160 | 4570 ± 766 | 4010 | 5780 ± 788 | 4070 ± 669 | 310 ± 98 | 392 ± 88 | 386 ± 72 | 134 ± 49 | 247 ± 62 | 74.8 ± 21 | 68 ± 16 | 77.4 ± 18 | 69.8 ± 14 | 78.4 ± 12 | 47 ± 18 | 44.2 ± 16 | 58.4 ± 11 | COc1ncnc(NS(=O)(=O)c2ccc(N)cc2)c1OC [SDX, sulfadoxine] | concentration at 20 d [1, 7]: 76.4 ± 14 ng/mL; concentration at 21 d [1, 7]: 21.4 ± 7.3 ng/mL; concentration at 22 d [1, 7]: 25.3 ± 6.9 ng/mL; concentration at 23 d [1, 7]: 15.9 ± 7.2 ng/mL; concentration at 24 d [1, 7]: 37 ± 5.4 ng/mL; concentration at 25 d [1, 7]: 31.5 ± 6.3 ng/mL; concentration at 26 d [1, 7]: 19.1 ± 4.2 ng/mL; concentration at 27 d [1, 7]: 19.3 ± 3.7 ng/mL; concentration at 28 d [1, 7]: 35 ± 8.1 ng/mL; concentration at 29 d [1, 7]: 30.4 ± 7.6 ng/mL; concentration at 30 d [1, 8]: 23 ng/mL; concentration in oral fluid at withdrawal period [1]: 247 ng/mL; Avarage Concentrations in oral fluid [1, 9]: 22,300 ± 3555 µg/L; Avarage Concentrations in oral fluid ([1]; time 4 d, posttreatment): 4010 ± 601 µg/L; Avarage Concentrations in oral fluid ([1]; time 30 d, posttreatment): 23.0 ± 6.2 µg/L; distribution to oral fluid [1]: high distribution; pKa ([2]; weak organic acid): 6.16
2 | 7600 | 7600 | 2520 ± 355 | 2460 ± 311 | 1560 | 1540 ± 233 | 2960 ± 299 | 2570 ± 254 | 875 ± 156 | 567 ± 111 | 621 ± 124 | 279 ± 66 | 254 ± 69 | 138 ± 43 | 269 ± 71 | 156 ± 41 | 279 ± 68 | 182 ± 49 | 176 ± 52 | 202 ± 45 | C=C[C@]1(C)C[C@@H](OC(=O)CSCCN(CC)CC)[C@]2(C)[C@H](C)CC[C@]3(CCC(=O)[C@H]32)[C@@H](C)[C@@H]1O [TIAM, tiamulin] | concentration at 20 d [1, 7]: 133 ± 36 ng/mL; concentration at 21 d [1, 7]: 148 ± 32 ng/mL; concentration at 22 d [1, 7]: 220 ± 44 ng/mL; concentration at 23 d [1, 7]: 146 ± 29 ng/mL; concentration at 24 d [1, 7]: 310 ± 55 ng/mL; concentration at 25 d [1, 7]: 193 ± 33 ng/mL; concentration at 26 d [1, 7]: 66.4 ± 12 ng/mL; concentration at 27 d [1, 7]: 54.3 ± 14 ng/mL; concentration at 28 d [1, 7]: 35.8 ± 17 ng/mL; concentration at 29 d [1, 7]: 40.6 ± 21 ng/mL; concentration at 30 d [1, 8]: 46.9 ng/mL; Avarage Concentrations in oral fluid [1, 9]: 7600 ± 1055 µg/L; Avarage Concentrations in oral fluid ([1]; time 4 d, posttreatment): 1560 ± 225 µg/L; Avarage Concentrations in oral fluid ([1]; time 30 d, posttreatment): 46.9 ± 19 µg/L; distribution to oral fluid [1]: high distribution; pKa [2]: 7.6
3 | 14100 | 14100 | 2810 ± 556 | 1810 ± 311 | 1030 ± 221 | 1400 ± 255 | 1280 ± 198 | 264 ± 73 | 125 ± 41 | 128 ± 38 | 36.4 ± 15 | 67.1 ± 20 | 25.2 ± 9.6 | 22 ± 8.7 | 22.1 ± 6.4 | 31.6 ± 11 | 24.2 ± 8.2 | 18.9 ± 4.8 | 13 ± 3.6 | 42 ± 14 | COc1cc(Cc2cnc(N)nc2N)cc(OC)c1OC [TRMP, trimethoprim] | concentration at 20 d [1, 7]: 36.4 ± 10 ng/mL; concentration at 21 d [1, 7]: 10.2 ± 4.4 ng/mL; concentration at 22 d [1, 7]: 46.4 ± 16 ng/mL; concentration at 23 d [1, 7]: 6.9 ± 2.4 ng/mL; concentration at 24 d [1, 7]: 19.4 ± 5.5 ng/mL; concentration at 25 d [1, 7]: 17.8 ± 4.1 ng/mL; concentration at 26 d [1, 7]: 15.9 ± 3.6 ng/mL; concentration at 27 d [1, 7]: 10.4 ± 2.9 ng/mL; concentration at 28 d [1, 7]: 16.5 ± 6.2 ng/mL; concentration at 29 d [1, 7]: 21.2 ± 9.4 ng/mL; concentration at 30 d [1, 8]: 22.4 ng/mL; concentration in oral fluid at withdrawal period [1]: 67.1 ng/mL; Avarage Concentrations in oral fluid [1, 9]: 14,100 ± 2556 µg/L; Avarage Concentrations in oral fluid ([1]; time 30 d, posttreatment): 22.4 ± 9.1 µg/L; distribution to oral fluid [1]: high distribution
